Results as given in ChEMBL document CHEMBL1201862, “PubChem BioAssay data set” (2004).
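Briefly, cells in 96-well plates were exposed to five compound concentrations for 48 h, and endpoints were estimated by linear interpolation. At the GI50, growth is halved.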 Active and inactive are the calls of the source. Cut-off read from the data, not from the text of the source: active = GI50 up to about 1.1 µM and inactive = higher.

Experiments:
Test in all cases: inhibition of tumour cell growth, NCI panel, 48 h
EKVX = tested on: EKVX
HT-29 = tested on: HT-29
IGROV-1 = tested on: IGROV-1
SK-MEL-28 = tested on: SK-MEL-28
NCI-H460 = tested on: NCI-H460
SK-OV-3 = tested on: SK-OV-3
OVCAR-8 = tested on: OVCAR-8
RPMI-8226 = tested on: RPMI-8226
MDA-MB-231 = tested on: MDA-MB-231
MOLT-4 = tested on: MOLT-4
A498 = tested on: A498
CAKI-1 = tested on: CAKI-1
SK-MEL-2 = tested on: SK-MEL-2
T47D = tested on: T47D
KM12 = tested on: KM12
MDA-N = tested on: MDA-N
SK-MEL-5 = tested on: SK-MEL-5
UACC-257 = tested on: UACC-257
Malme-3M = tested on: Malme-3M
SW-620 = tested on: SW-620
UO-31 = tested on: UO-31
NCI-H23 = tested on: NCI-H23
SNB-19 = tested on: SNB-19
SF-268 = tested on: SF-268
DU-145 = tested on: DU-145
TK-10 = tested on: TK-10
ACHN = tested on: ACHN
HCT-116 = tested on: HCT-116
K562 = tested on: K562
COLO 205 = tested on: COLO 205
UACC-62 = tested on: UACC-62
HOP-62 = tested on: HOP-62
MDA-MB-435 = tested on: MDA-MB-435
Hs-578T = tested on: Hs-578T
M14 = tested on: M14
NCI/ADR-RES = tested on: NCI/ADR-RES
SNB-75 = tested on: SNB-75
NCI-H522 = tested on: NCI-H522
RXF 393 = tested on: RXF 393
SF-295 = tested on: SF-295
786-0 = tested on: 786-0
MCF7 = tested on: MCF7
HCC 2998 = tested on: HCC 2998
BT-549 = tested on: BT-549
OVCAR-4 = tested on: OVCAR-4
OVCAR-3 = tested on: OVCAR-3
OVCAR-5 = tested on: OVCAR-5
U-251 = tested on: U-251
A549 = tested on: A549
HCT-15 = tested on: HCT-15
PC-3 = tested on: PC-3
HOP-92 = tested on: HOP-92
SN12C = tested on: SN12C
NCI-H226 = tested on: NCI-H226
SF-539 = tested on: SF-539
LOX IMVI = tested on: LOX IMVI
CCRF-CEM = tested on: CCRF-CEM
HL-60 = tested on: HL-60

COC(=O)C1CC=C(SC(=O)c2ccccc2)N1C(=O)c1ccccc1 (stereo not drawn)
GI50 (EKVX): > 100 µM (inactive)
GI50 (HT-29): > 100 µM (inactive)
GI50 (IGROV-1): > 100 µM (inactive)
GI50 (SK-MEL-28): > 100 µM (inactive)
GI50 (NCI-H460): 39.6 µM (inactive)
GI50 (SK-OV-3): > 100 µM (inactive)
GI50 (OVCAR-8): > 100 µM (inactive)
GI50 (RPMI-8226): > 100 µM (inactive)
GI50 (MDA-MB-231): > 100 µM (inactive)
GI50 (MOLT-4): > 100 µM (inactive)
GI50 (A498): > 100 µM (inactive)
GI50 (CAKI-1): > 100 µM (inactive)
GI50 (SK-MEL-2): > 100 µM (inactive)
GI50 (T47D): > 100 µM (inactive)
GI50 (KM12): > 100 µM (inactive)
GI50 (MDA-N): > 100 µM (inactive)
GI50 (SK-MEL-5): > 100 µM (inactive)
GI50 (UACC-257): > 100 µM (inactive)
GI50 (Malme-3M): > 100 µM (inactive)
GI50 (SW-620): > 100 µM (inactive)
GI50 (UO-31): > 100 µM (inactive)
GI50 (NCI-H23): > 100 µM (inactive)
GI50 (SNB-19): > 100 µM (inactive)
GI50 (SF-268): > 100 µM (inactive)
GI50 (DU-145): > 100 µM (inactive)
GI50 (TK-10): > 100 µM (inactive)
GI50 (ACHN): > 100 µM (inactive)
GI50 (HCT-116): > 100 µM (inactive)
GI50 (K562): > 100 µM (inactive)
GI50 (COLO 205): > 100 µM (inactive)
GI50 (UACC-62): > 100 µM (inactive)
GI50 (HOP-62): > 100 µM (inactive)
GI50 (MDA-MB-435): > 100 µM (inactive)
GI50 (Hs-578T): > 100 µM (inactive)
GI50 (M14): > 100 µM (inactive)
GI50 (NCI/ADR-RES): > 100 µM (inactive)
GI50 (SNB-75): 76 µM (inactive)
GI50 (NCI-H522): > 100 µM (inactive)
GI50 (RXF 393): > 100 µM (inactive)
GI50 (SF-295): > 100 µM (inactive)
GI50 (786-0): > 100 µM (inactive)
GI50 (MCF7): > 100 µM (inactive)
GI50 (HCC 2998): > 100 µM (inactive)
GI50 (BT-549): > 100 µM (inactive)
GI50 (OVCAR-4): > 100 µM (inactive)
GI50 (OVCAR-3): > 100 µM (inactive)
GI50 (OVCAR-5): > 100 µM (inactive)
GI50 (U-251): > 100 µM (inactive)
GI50 (A549): > 100 µM (inactive)
GI50 (HCT-15): > 100 µM
GI50 (PC-3): > 100 µM (inactive)
GI50 (HOP-92): > 100 µM (inactive)

COc1ccc(NC(=O)/C(=N\NC(=O)C[n+]2ccccc2)c2c(O)c3ccc(O)cc3oc2=O)c([N+](=O)[O-])c1
GI50 (EKVX): > 100 µM (inactive)
GI50 (HT-29): > 100 µM (inactive)
GI50 (IGROV-1): > 100 µM (inactive)
GI50 (SK-MEL-28): > 100 µM (inactive)
GI50 (NCI-H460): > 100 µM (inactive)
GI50 (SK-OV-3): > 100 µM (inactive)
GI50 (OVCAR-8): > 100 µM (inactive)
GI50 (RPMI-8226): > 100 µM (inactive)
GI50 (SN12C): > 100 µM (inactive)
GI50 (MDA-MB-231): > 100 µM (inactive)
GI50 (NCI-H226): > 100 µM (inactive)
GI50 (MOLT-4): 85.5 µM (inactive)
GI50 (A498): 75.7 µM (inactive)
GI50 (CAKI-1): > 100 µM (inactive)
GI50 (SK-MEL-2): > 100 µM (inactive)
GI50 (T47D): > 100 µM (inactive)
GI50 (KM12): 40.1 µM (inactive)
GI50 (MDA-N): > 100 µM (inactive)
GI50 (SK-MEL-5): > 100 µM (inactive)
GI50 (UACC-257): > 100 µM (inactive)
GI50 (Malme-3M): > 100 µM (inactive)
GI50 (SF-539): > 100 µM (inactive)
GI50 (SW-620): > 100 µM (inactive)
GI50 (UO-31): > 100 µM (inactive)
GI50 (NCI-H23): > 100 µM (inactive)
GI50 (SNB-19): > 100 µM (inactive)
GI50 (LOX IMVI): > 100 µM (inactive)
GI50 (SF-268): > 100 µM (inactive)
GI50 (CCRF-CEM): > 100 µM (inactive)
GI50 (DU-145): > 100 µM (inactive)
GI50 (TK-10): > 100 µM (inactive)
GI50 (ACHN): > 100 µM (inactive)
GI50 (HCT-116): > 100 µM (inactive)
GI50 (K562): > 100 µM (inactive)
GI50 (COLO 205): > 100 µM (inactive)
GI50 (UACC-62): > 100 µM (inactive)
GI50 (MDA-MB-435): > 100 µM (inactive)
GI50 (Hs-578T): > 100 µM (inactive)
GI50 (M14): > 100 µM (inactive)
GI50 (NCI/ADR-RES): > 100 µM (inactive)
GI50 (SNB-75): 92 µM (inactive)
GI50 (NCI-H522): > 100 µM (inactive)
GI50 (SF-295): > 100 µM (inactive)
GI50 (786-0): > 100 µM (inactive)
GI50 (MCF7): > 100 µM (inactive)
GI50 (HCC 2998): > 100 µM (inactive)
GI50 (BT-549): > 100 µM (inactive)
GI50 (OVCAR-4): > 100 µM (inactive)
GI50 (HL-60): > 100 µM (inactive)
GI50 (OVCAR-3): > 100 µM (inactive)
GI50 (OVCAR-5): > 100 µM (inactive)
GI50 (U-251): > 100 µM (inactive)
GI50 (A549): > 100 µM (inactive)
GI50 (HCT-15): > 100 µM
GI50 (PC-3): > 100 µM (inactive)
GI50 (HOP-92): 32.3 µM (inactive)

CC1(C)CC(=O)C(=CNc2nc(-c3cccc([N+](=O)[O-])c3)cs2)C(=O)C1
GI50 (EKVX): 14.7 µM (inactive)
GI50 (HT-29): 17 µM (inactive)
GI50 (IGROV-1): 17.6 µM (inactive)
GI50 (NCI-H460): 14.7 µM (inactive)
GI50 (SK-OV-3): 32.7 µM (inactive)
GI50 (OVCAR-8): 23.7 µM (inactive)
GI50 (RPMI-8226): 17.9 µM (inactive)
GI50 (SN12C): 18.1 µM (inactive)
GI50 (MDA-MB-231): 18.5 µM (inactive)
GI50 (NCI-H226): 15.3 µM (inactive)
GI50 (MOLT-4): 10.5 µM (inactive)
GI50 (A498): 13.8 µM (inactive)
GI50 (CAKI-1): 11.3 µM (inactive)
GI50 (SK-MEL-2): 55.8 µM (inactive)
GI50 (T47D): 18.1 µM (inactive)
GI50 (KM12): 16.6 µM (inactive)
GI50 (MDA-N): 17.8 µM (inactive)
GI50 (UACC-257): 22.5 µM (inactive)
GI50 (SF-539): 20.8 µM (inactive)
GI50 (SW-620): 11.9 µM (inactive)
GI50 (UO-31): 25.6 µM (inactive)
GI50 (NCI-H23): 18.1 µM (inactive)
GI50 (SNB-19): 15.3 µM (inactive)
GI50 (LOX IMVI): 13.7 µM (inactive)
GI50 (SF-268): 15 µM (inactive)
GI50 (CCRF-CEM): 2 µM (inactive)
GI50 (DU-145): 29.4 µM (inactive)
GI50 (TK-10): 35.8 µM (inactive)
GI50 (ACHN): 18.2 µM (inactive)
GI50 (HCT-116): 14.9 µM (inactive)
GI50 (K562): 16.6 µM (inactive)
GI50 (COLO 205): 14.8 µM (inactive)
GI50 (UACC-62): 16 µM (inactive)
GI50 (HOP-62): 19.6 µM (inactive)
GI50 (MDA-MB-435): 21.4 µM (inactive)
GI50 (Hs-578T): 18.9 µM (inactive)
GI50 (M14): 15.8 µM (inactive)
GI50 (NCI/ADR-RES): 18 µM (inactive)
GI50 (SNB-75): 14.9 µM (inactive)
GI50 (NCI-H522): 9.04 µM (inactive)
GI50 (RXF 393): 21.7 µM (inactive)
GI50 (SF-295): 37.2 µM (inactive)
GI50 (786-0): 15.1 µM (inactive)
GI50 (MCF7): 15.8 µM (inactive)
GI50 (HCC 2998): 15.7 µM (inactive)
GI50 (BT-549): 18.7 µM (inactive)
GI50 (OVCAR-4): 27.5 µM (inactive)
GI50 (HL-60): 7.52 µM (inactive)
GI50 (OVCAR-3): 29 µM (inactive)
GI50 (OVCAR-5): 46.3 µM (inactive)
GI50 (U-251): 19.6 µM (inactive)
GI50 (A549): 66.1 µM (inactive)
GI50 (HCT-15): 11.6 µM
GI50 (PC-3): 24.8 µM (inactive)
GI50 (HOP-92): 17.3 µM (inactive)
